In US20220395451A1, “NOVEL SKIN CARE COMPOSITION” (BEIERSDORF AG, priority 2019, published 2022):
Several values for one entry are separate records, joined by “and”; a condition that tells them apart may be missing. Identical values can stand only once.

Key:
[1] = system: C. acnes strain C3; assay: Minimum inhibitory concentration (MIC) of cosmetic excipients, strain C3; assay type: cell-based, Cutibacterium acnes; settings: % w/vol; anaerobic incubation 3 days at 37° C.; growth scored visually
Experimental: (§1) In microbiology, the MIC is the lowest concentration of a chemical which prevents visible growth of bacterium. The resulted MIC value depends both on the microorganism and the test compound. The MIC is determined by preparing concentrations series of the test compound in vitro, incubating the solutions with the separate batches of cultured bacteria, and measuring the results using agar dilution or broth microdilution. For the experiments with C. acnes strains C3 and K8, media comprising yeast extract soy peptone and dextrose were used. The MIC is determined by turbidity.
(§2) A total of 125 cosmetic excipients were tested for their compatibility with C. acnes strains C3 and K8. Hydrophilic compounds were tested in a 96-well plate liquid broth format, poorly soluble compounds were pre-dissolved in DMSO before dilution in liquid broth and hydrophobic or solid compounds were tested in an agar well diffusion test assay. The different dilutions of the test excipients in media were prepared in Falcon tubes and then distributed in a deep well plate using a multistepper. Each well received 1.2 ml and was subsequently inoculated with 120 μl of C. acnes bacteria suspension (strain C3 and K8). From the deep well plate 200 μl were transferred in each well of a clear 96 well replicate plate. The leftover was discarded. The plates were then incubated anaerobically for 3 days at 37° C. Following incubation, the test plates were visually examined and wells were scored for growth or complete growth inhibition to define the minimum inhibitory concentration.
(§3) These excipients are listed in the below table with their compatibility values for C. acnes strains C3 and K8. The compatibility values represent the MIC value of the listed ingredients with the tested C. acnes strains. At this concentration [% w/vol] the tested compound starts interfering with the growth of the tested strains. The compounds can be used in formulations at concentrations below this concentration.

[2] = system: C. acnes strain K8; assay: Minimum inhibitory concentration (MIC) of cosmetic excipients, strain K8; assay type: cell-based, Cutibacterium acnes; settings: % w/vol; anaerobic incubation 3 days at 37° C.; growth scored visually
Experimental: as §1, §2, §3

Row | Compound | COMPATABILITY VALUE C3 (MIC) [1] | COMPATABILITY VALUE C3 (MIC) [2] | COM[…] C3 (MIC) [1] | COM[…] C3 (MIC) [2]
1 | CCCCCCC(O)CO (stereo not shown) [caprylyl glycol] | 0.18% | 0.18% |  | 
2 | O=C(O)CC(O)(CC(=O)O)C(=O)O [citric acid] | 0.33% | 0.08% |  | 
3 | Citric acid/citrate |  |  | 1.30% | 1.30%
4 | CC(CO)CO [methylpropanediol] | 4.00% | 4.00% |  | 
5 | CCO [ethanol] |  | 3.75% |  | 
6 | tocopherol | 1.50% and 10.00% | 1.50% and 10.00% |  | 
7 | CC(=O)Oc1c(C)c(C)c2c(c1C)CCC(C)(CCC[C@H](C)CCC[C@H](C)CCCC(C)C)O2 (stereo partly shown) [tocopheryl acetate] | 1.00% | 1.00% |  | 
